Test [1] has as its target adenosine A1 (human) membrane (Homo sapiens (Human), UniProt P30542). Nature of the test: A1 adenosine receptor radioligand binding assay ([3H] DPCPX). To be noted: radioligand [3H] DPCPX 1 nM, compound 200 nM. As to the method:
A second A1 adenosine receptor radioligand binding assay protocol was used. The protocol used adenosine A1 (human) membrane (PerkinElmer ES-010-M400UA) at a concentration of 2.5 μg/well/100 μl and the radioligand [3H] DPCPX (Cat No. PerkinElmer-NET974250UC) at a final concentration of 1 nM. Testing compounds were tested at a final concentration of 200 nM. CGS-15943, the reference compound, was tested in an 8-point 4-fold serial dilution, starting at a top concentration of 1 μM. 1 μl of compounds/high control/low control was transferred to the assay plate according to a plate map, followed by 100 μl of membrane stocks and 100 μl of radioligand, in assay buffer (25 mM HEPES, 5 mM MgCl2, 1 mM CaCl2, 100 mM NaCl, pH 7.4). The plate was sealed and incubated at RT for 1 hour. Unifilter-96 GF/C filter plates (Perkin Elmer Cat #6005174) were soaked with 50 μl of 0.3% PEI per well for at least 0.5 hour at room temperature. When the binding assays were completed, the reaction mixtures were filtered through GF/C plates using Perkin Elmer Filtermate Harvester, and each plate washed 4 times with cold wash buffer (25 mM HEPES, 5 mM MgCl2, 1 mM CaCl2, 100 mM NaCl, pH 7.4). The filter plates were dried for 1 hour at 50 degrees. After drying, the bottom of the filter plate wells was sealed, 50 μl of Perkin Elmer Microscint 20 cocktail was added, and the top of the filter plate was sealed. ^3H trapped on the filter was counted using Perkin Elmer MicroBeta2 Reader. The data were analyzed with GraphPad Prism 5 to obtain binding IC50 values for the reference compound. The “Inhibition [% Control]” was calculated using the equation: % Inh=(1−Background subtracted Assay value/Background subtracted HC value)*100, where HC is high control.

The target of test [2] is human recombinant adenosine A2A receptor (Homo sapiens (Human), UniProt P29274). The test is described as follows: cAMP assay (Assay 2), HEK-293 cells expressing A2A receptor. It counts as cell-based. To be noted: HEK-293 cells expressing human recombinant adenosine A2A receptor. As to the method: (§1) The functional activity of compounds was tested using Assay 2, below, to detect the presence of cAMP. Assay 1 is an alternative assay for this purpose. Activation of G-protein coupled receptors (such as A2A) results in activation of adenylyl cyclase which converts ATP into cAMP which is used as a downstream signaling molecule. Therefore, molecules which act as GPCR (or specifically A2A receptor) antagonists cause a decrease in intracellular cAMP concentration.
Chain of human recombinant adenosine A2A receptor (P29274 whole entry): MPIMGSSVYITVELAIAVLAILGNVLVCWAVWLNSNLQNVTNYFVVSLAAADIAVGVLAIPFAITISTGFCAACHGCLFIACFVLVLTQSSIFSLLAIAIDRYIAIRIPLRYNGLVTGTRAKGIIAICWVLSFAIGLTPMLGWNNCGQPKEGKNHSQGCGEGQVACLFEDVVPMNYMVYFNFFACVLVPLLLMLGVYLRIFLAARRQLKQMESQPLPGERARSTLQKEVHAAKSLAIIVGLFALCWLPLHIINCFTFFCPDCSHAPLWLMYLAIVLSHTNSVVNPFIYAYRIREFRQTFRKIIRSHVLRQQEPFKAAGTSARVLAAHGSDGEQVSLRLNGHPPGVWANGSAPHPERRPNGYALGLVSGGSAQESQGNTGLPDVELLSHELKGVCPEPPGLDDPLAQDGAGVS
(§2) Assay 2 (Table B2): This assay used HEK-293 cells expressing human recombinant adenosine A2A receptor (or, alternatively, A1 receptor) that were grown prior to the test in media without antibiotic. 100 nL of test articles at 100× of final concentration were transferred to assay plate by Echo. Cells were washed twice with 5 mL of PBS and 10 μL of cells were mixed with 5 mL PBS. After aspirating the PBS and adding 1.5 mL versine, cells were incubated at 37° C. for 2-5 min. After centrifugation, 4 mL of medium was added and adjusted cell density to 5,000 cells/well with Stimulation Buffer. 10 μL of cells were aliquoted to the assay plate, centrifuged at 1000 rpm for 1 minute, and incubated for 60 minutes at room temperature. 5 μL 4× Eu-cAMP tracer solution and 5 μL 4× Ulight™-anti-cAMP solution were added to assay plate, followed by centrifugation and 60-minute incubation at room temperature. Plates were read on EnVision.
A general note: Cyclic AMP is a second messenger, typically raised through Gs and lowered through Gi signalling.

Test [3] concerns the target human recombinant adenosine A1 receptor (Homo sapiens (Human), UniProt P30542). The test is described as follows: cAMP assay (Assay 2), HEK-293 cells expressing A1 receptor. It counts as cell-based. The procedure: as §1, §2
The test system of a further test is activated human PBMCs. Nature of the test: Human T cell activation assay (TNF-α and IFN-γ ELISA). It counts as cell-based. Particulars: activated human T cells in vitro, NECA 1 μM or 5 μM. As to the method: Human T Cell Activation Assay: Fresh human blood was diluted with the same volume of PBS and the buffy coat containing peripheral blood mononuclear cells (PBMCs) were prepared and resuspended in culture medium at a density of 2×10^6/mL. 2×10^5 PBMCs (in 100 μL) were plated to each well of a 96-well flat bottom plate. 25 μL of 8× final concentration of 10-fold serial diluted or single concentration compounds was added to indicated wells and incubated for 30 mins in 37° C./5% CO2. 25 μL of 8× final concentration of NECA (1 μM or 5 μM) was added to selected wells and incubated for 30 min in 37° C./5% CO2. Beads included in T cell activation/expansion kit (Miltenyi biotec Cat #130-091-441) at a bead-to-cell ratio of 1:6 in 50 μL were added to all wells with the final concentration of DMSO at 0.1% and final volume at 200 μL. 60 μL of supernatant post 24 hr and 48 hr incubation was collected for TNF-α and IFN-γ concentration evaluation using TNF-α ELISA ready-set-go kit (eBioscience, Cat #88-7346-77) and IFN-γ ELISA ready-set-go kit (eBioscience, Cat #88-7316-77), respectively.
A general note: An ELISA detects its analyte on a solid surface through an enzyme-linked reagent.

Test [4] concerns the target adenosine A2a (human) membrane (Homo sapiens (Human), UniProt P29274). The test is described as follows: A2A adenosine receptor radioligand binding assay ([3H] CGS-21680). Particulars: radioligand [3H] CGS-21680 6 nM. As to the method:
A second A2A adenosine receptor radioligand binding assay protocol was used. The protocol used adenosine A2a (human) membrane (PerkinElmer RBHA2AM400UA) at a concentration of 5 μg/well/100 μl and the radioligand [3H] CGS-21680 (Cat No. PerkinElmer-NET1021250UC) at a final concentration of 6 nM. Testing compounds were diluted with DMSO to make 8-point 4-fold serial dilution, starting at 0.2 mM. CGS-15943 was the reference compound. 1 μl of compounds/high control/low control was transferred to the assay plate according to a plate map, followed by 100 μl of membrane stocks and 100 μl of radioligand, in assay buffer (50 mM Tris-HCl, 10 mM MgCl2, 1 mM EDTA, pH 7.4). The plate was sealed and incubated at RT for 2 hours. Unifilter-96 GF/C filter plates (Perkin Elmer Cat #6005174) were soaked with 50 μl of 0.3% PEI per well for at least 0.5 hour at room temperature. When the binding assays were completed, the reaction mixtures were filtered through GF/C plates using Perkin Elmer Filtermate Harvester, and each plate washed 4 times with cold wash buffer (50 mM Tris-HCl, 154 mM NaCl, pH 7.4). The filter plates were dried for 1 hour at 50 degrees. After drying, the bottom of the filter plate wells was sealed, 50 μl of Perkin Elmer Microscint 20 cocktail was added, and the top of the filter plate was sealed. ^3H trapped on the filter was counted using Perkin Elmer MicroBeta2 Reader. The data were analyzed with GraphPad Prism 5 to obtain binding IC50 values. The “Inhibition [% Control]” was calculated using the equation: % Inh=(1−Background subtracted Assay value/Background subtracted HC value)*100, where HC is high control.

Broadly, the inhibition is the change of the read-out against control, counted positive when it falls. Read a high inhibition as strong suppression. The IC50 is the concentration at which inhibition is half-maximal.

SMILES strings stand for the structures.

Chain of adenosine A1 (human) membrane (P30542 whole entry): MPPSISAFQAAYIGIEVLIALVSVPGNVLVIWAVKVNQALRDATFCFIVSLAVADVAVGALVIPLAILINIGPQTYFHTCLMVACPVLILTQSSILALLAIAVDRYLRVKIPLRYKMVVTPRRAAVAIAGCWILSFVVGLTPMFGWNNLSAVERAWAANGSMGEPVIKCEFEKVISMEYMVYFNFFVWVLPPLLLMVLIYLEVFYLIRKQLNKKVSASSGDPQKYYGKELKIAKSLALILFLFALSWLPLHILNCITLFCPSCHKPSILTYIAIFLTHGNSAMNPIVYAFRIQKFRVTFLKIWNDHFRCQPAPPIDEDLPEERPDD
Chain of adenosine A2a (human) membrane (P29274 whole entry): as the sequence (P29274 whole entry) above
Chain of human recombinant adenosine A1 receptor (P30542 whole entry): as the sequence (P30542 whole entry) above

In turn, `CC(C)n1cc(-c2cc3c(=O)cc[nH]c3nc2-c2ccccc2)ccc1=O` [Compound 1, 6-(1-isopropyl-6-oxo-1,6-dihydropyridin-3-yl)-7-phenyl-1,8-naphthyridin-4(1H)-one] displayed an inhibition at 0.2 µM in test [1] of 98%. The IC50 is 0.0338 µM in test [2], 0.0032 µM in test [3] and 0.0026 µM in test [4]. Also, the “reversal of NECA-mediated suppression of TNF-α secretion” value with activated human PBMCs (FIG. 1) is listed as “reversed NECA-mediated suppression”. In the test with activated human PBMCs (FIG. 2), the “reversal of NECA-mediated suppression of IFN-γ secretion” value is “reversed NECA-mediated suppression”.

For `Cc1cc(-c2cc3c(=O)cc[nH]c3nc2-c2cccc(C#N)c2C)cc(Cl)n1` [Compound 3, 3-(3-(2-chloro-6-methylpyridin-4-yl)-5-oxo-5,8-dihydro-1,8-naphthyridin-2-yl)-2-methylbenzonitrile], 0.2 µM produced 7% inhibition in test [1]. In test [4], this compound came in with an IC50 of 2.6 µM.

In test [1], `Cc1cc(-c2cc3c(=O)cc[nH]c3nc2-c2cccc(C#N)c2)cc(Cl)n1` [Compound 6, 3-(3-(2-chloro-6-methylpyridin-4-yl)-5-oxo-5,8-dihydro-1,8-naphthyridin-2-yl)benzonitrile] gave an inhibition at 0.2 µM of 26%. For the same compound, the IC50 in test [4] was found to be 0.113 µM.

On to `CC(C)n1cc(-c2cc3c(=O)cc[nH]c3nc2-c2ccccc2)cc(Cl)c1=O` [Compound 7, 6-(5-chloro-1-isopropyl-6-oxo-1,6-dihydropyridin-3-yl)-7-phenyl-1,8-naphthyridin-4(1H)-one], for which the IC50 in test [2] came to 0.011 µM; in test [3] it was 0.0058 µM; in test [4] it was 0.0035 µM.

Consider `Cc1cc(-c2cc3c(=O)cc[nH]c3nc2-c2ccccc2)cc(Cl)c1NS(C)(=O)=O` [Compound 45, N-(2-chloro-6-methyl-4-(5-oxo-2-phenyl-5,8-dihydro-1,8-naphthyridin-3-yl)phenyl)methanesulfonamide], for which the inhibition at 0.2 µM in test [1] stood at 34%. Moreover, the IC50 in test [2] is over 10 µM.

For the compound `Cc1c(C#N)cccc1-c1nc2[nH]ccc(=O)c2cc1-c1ccc2ncccc2c1` [Compound 55, 2-methyl-3-(5-oxo-3-(quinolin-6-yl)-5,8-dihydro-1,8-naphthyridin-2-yl)benzonitrile], the inhibition at 0.2 µM in test [1] is 5%. For the same compound, in test [4], the IC50 amounted to 0.179 µM.

`Cn1cc(-c2cc3c(=O)cc[nH]c3nc2-c2ccccc2)cc(Cl)c1=O` [Compound 75] registered an inhibition at 0.2 µM in test [1] of 82%. In addition, the IC50 in test [2] was determined as 0.195 µM.

Compound `Cn1cc(-c2cc3c(=O)cc[nH]c3nc2-c2ccccc2)ccc1=O` [Compound 76] displayed an inhibition at 0.2 µM in test [1] of 92%. For the same compound, the IC50 in test [2] worked out at 0.156 µM.

Compound `N#Cc1cccc(-c2nc3[nH]ccc(=O)c3cc2-c2ccc3ncccc3c2)c1` [Compound 77, 3-(5-oxo-3-(quinolin-6-yl)-5,8-dihydro-1,8-naphthyridin-2-yl)benzonitrile] displayed an inhibition at 0.2 µM in test [1] of 61%. Moreover, the IC50 is 0.213 µM in test [2] and 0.0054 µM in test [4].

In turn, `N#Cc1cccc(-c2nc3[nH]ccc(=O)c3cc2-c2ccc3[nH]ncc3c2)c1` [Compound 78, 3-(3-(1H-indazol-5-yl)-5-oxo-5,8-dihydro-1,8-naphthyridin-2-yl)benzonitrile] gave an inhibition at 0.2 µM in test [1] of 81%. Moreover, in test [4], the IC50 is 0.049 µM.

Take `N#Cc1cccc(-c2nc3[nH]ccc(=O)c3cc2-c2ccc3ncsc3c2)c1` [Compound 79, 3-(3-(benzo[d]thiazol-6-yl)-5-oxo-5,8-dihydro-1,8-naphthyridin-2-yl)benzonitrile]: the inhibition at 0.2 µM in test [1] came out at 85%. The compound also registered an IC50 in test [4] of 0.0095 µM.

`N#Cc1cccc(-c2nc3[nH]ccc(=O)c3cc2-c2ccc3[nH]cnc3c2)c1` [Compound 80, 3-(3-(1H-benzo[d]imidazol-5-yl)-5-oxo-5,8-dihydro-1,8-naphthyridin-2-yl)benzonitrile] registered an inhibition at 0.2 µM in test [1] of 79%. This compound also registered an IC50 in test [4] of 0.017 µM.
